ChEMBL document CHEMBL6178014, “Discovery and Administration Optimization of Novel Selective CDK9 Inhibitor, 1-7a-B1, for Improved Pharmacokinetics and Antitumor Efficacy In Vivo” (J Med Chem, 2025)
Activity calls are given as the source filed them. The calls are words filed in the database; no cut-off is given here.

Assays:
HCT-116 [1] = experiment: Antiproliferative activity against human HCT-116 cells assessed as inhibition of cell growth incubated for 48 hrs by CCK8 assay; type: functional
[2] = Volume of distribution in Sprague-Dawley rat at 30 mg/kg, po measured after 24 hrs by LC-MS/MS analysis; type: ADME, organism-based; details: in vivo
[3] = AUC (0 to infinity) in Sprague-Dawley rat at 2 mg/kg, iv measured after 24 hrs by LC-MS/MS analysis; type: ADME, organism-based; details: in vivo
HCT-116 [4] = experiment: Upregulation of p21 expression in human HCT-116 cells at 100 to 400 nM incubated for 48 hrs by Western blot analysis; type: functional, cell-based; details: dose 100-400 nM
HCT-116 [5] = experiment: Induction of cell cycle arrest in human HCT-116 cells assessed as accumulation of cells at S phase incubated for 48 hrs by PI/RNase staining based flow cytometry analysis; type: functional
HT-29 = experiment: Antiproliferative activity against human HT-29 cells assessed as inhibition of cell growth incubated for 48 hrs by CCK8 assay; type: functional
[6] = Half life in Sprague-Dawley rat at 2 mg/kg, iv measured after 24 hrs by LC-MS/MS analysis; type: ADME, organism-based; details: in vivo
HCT-116 [7] = experiment: Downregulation of Mcl-1 level in human HCT-116 cells at 200 to 400 nM incubated for 48 hrs by Western blot analysis; type: functional, cell-based; details: dose 200-400 nM
CYP1A2 = CYP1A2 (Homo sapiens, UniProt P05177); experiment: Inhibition of CYP1A2 in human liver microsome at 10 uM pre-incubated with compound for 10 mins in presence of NADPH-regenerating system by LC-MS/MS analysis relative to control; type: ADME; details: liver microsomes
Chain of CYP1A2 (P05177 whole entry): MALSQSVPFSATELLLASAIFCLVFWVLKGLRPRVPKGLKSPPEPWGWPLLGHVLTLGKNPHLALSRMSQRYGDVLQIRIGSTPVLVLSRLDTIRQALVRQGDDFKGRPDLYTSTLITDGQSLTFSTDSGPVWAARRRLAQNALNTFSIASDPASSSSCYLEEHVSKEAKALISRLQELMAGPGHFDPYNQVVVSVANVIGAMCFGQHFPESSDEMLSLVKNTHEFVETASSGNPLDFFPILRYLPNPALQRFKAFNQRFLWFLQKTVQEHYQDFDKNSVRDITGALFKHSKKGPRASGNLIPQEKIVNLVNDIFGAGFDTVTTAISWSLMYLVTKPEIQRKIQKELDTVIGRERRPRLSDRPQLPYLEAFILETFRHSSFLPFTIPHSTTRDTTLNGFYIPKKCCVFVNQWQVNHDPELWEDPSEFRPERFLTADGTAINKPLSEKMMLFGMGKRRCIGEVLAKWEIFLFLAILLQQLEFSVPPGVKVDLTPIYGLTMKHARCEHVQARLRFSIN

CDK6/cyclin D3 = CDK6/cyclin D3 (Homo sapiens, UniProt Q00534); experiment: Inhibition of CDK6/cycD3 (unknown origin) by ADP-Glo assay; type: protein-complex assay
Chain of CDK6/cyclin D3 (P30281 whole entry): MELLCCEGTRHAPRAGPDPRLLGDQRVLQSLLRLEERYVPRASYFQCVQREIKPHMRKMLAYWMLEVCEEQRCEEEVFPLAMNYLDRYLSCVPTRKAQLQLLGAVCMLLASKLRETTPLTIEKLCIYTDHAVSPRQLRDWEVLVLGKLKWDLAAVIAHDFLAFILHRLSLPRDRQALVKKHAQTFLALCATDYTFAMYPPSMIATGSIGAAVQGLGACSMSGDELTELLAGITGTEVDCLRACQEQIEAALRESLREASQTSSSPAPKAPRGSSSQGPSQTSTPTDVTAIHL
Chain of CDK6/cyclin D3 (Q00534 whole entry): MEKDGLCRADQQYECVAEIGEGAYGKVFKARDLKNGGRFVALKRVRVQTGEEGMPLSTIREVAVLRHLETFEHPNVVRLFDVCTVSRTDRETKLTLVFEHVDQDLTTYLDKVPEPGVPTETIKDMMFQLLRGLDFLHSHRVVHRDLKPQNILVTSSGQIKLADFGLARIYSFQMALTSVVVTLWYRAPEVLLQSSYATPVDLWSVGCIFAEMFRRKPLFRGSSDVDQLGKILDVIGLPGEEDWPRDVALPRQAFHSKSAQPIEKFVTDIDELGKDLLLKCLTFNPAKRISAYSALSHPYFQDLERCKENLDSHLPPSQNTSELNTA

HCT-116 [8] = experiment: Effect on RNA polymerase II expression in human HCT-116 cells at 100 to 400 nM incubated for 48 hrs by Western blot analysis; type: functional, cell-based; details: dose 100-400 nM
[9] = Toxicity in female BALB/c nu-nu mouse xenografted with human HCT-116 cells assessed as histopathological changes in liver at 40 mg/kg, po administered once daily for 3 weeks by H and E staining based analysis; type: organism-based; details: in vivo, 504 h
Mus musculus = experiment: In vivo inhibition of CDK9/cyclinT1 in female BALB/c nu-nu mouse xenografted with human HCT-116 cells assessed as inhibition of phosphorylation of RNA polymerase II at Ser 2 residue at 40 mg/kg, po incubated for 48 hrs by Western blot analysis; type: functional, organism-based
HCT-116 [10] = experiment: Downregulation of c-Myc level in human HCT-116 cells at 200 to 400 nM incubated for 48 hrs by Western blot analysis; type: functional, cell-based; details: dose 200-400 nM
[11] = Metabolic stability in human liver microsome assessed as half life at 100 uM pre-incubated with compound for 60 mins followed by NADPH addition and measured up to 60 mins by LC-MS/MS analysis; type: ADME; details: liver microsomes, time < 120 min
HCT-116 [12] = experiment: Antitumor activity against human HCT-116 cells xenografted in female BALB/c nu-nu mouse assessed as tumor growth inhibition at 20 mg/kg, po as submicron emulsion administered once daily for 3 weeks by vernier caliper analysis; type: functional, organism-based
[13] = Toxicity in female BALB/c nu-nu mouse xenografted with human HCT-116 cells assessed as histopathological changes in lung at 20 mg/kg, po as submicron emulsion administered once daily for 3 weeks by H and E staining based analysis; type: organism-based; details: in vivo, 504 h
CYP3A4 = CYP3A4 (Homo sapiens, UniProt P08684); experiment: Inhibition of CYP3A4 in human liver microsome at 10 uM pre-incubated with compound for 10 mins in presence of NADPH-regenerating system by LC-MS/MS analysis relative to control; type: ADME; details: liver microsomes
Chain of CYP3A4 (P08684 whole entry): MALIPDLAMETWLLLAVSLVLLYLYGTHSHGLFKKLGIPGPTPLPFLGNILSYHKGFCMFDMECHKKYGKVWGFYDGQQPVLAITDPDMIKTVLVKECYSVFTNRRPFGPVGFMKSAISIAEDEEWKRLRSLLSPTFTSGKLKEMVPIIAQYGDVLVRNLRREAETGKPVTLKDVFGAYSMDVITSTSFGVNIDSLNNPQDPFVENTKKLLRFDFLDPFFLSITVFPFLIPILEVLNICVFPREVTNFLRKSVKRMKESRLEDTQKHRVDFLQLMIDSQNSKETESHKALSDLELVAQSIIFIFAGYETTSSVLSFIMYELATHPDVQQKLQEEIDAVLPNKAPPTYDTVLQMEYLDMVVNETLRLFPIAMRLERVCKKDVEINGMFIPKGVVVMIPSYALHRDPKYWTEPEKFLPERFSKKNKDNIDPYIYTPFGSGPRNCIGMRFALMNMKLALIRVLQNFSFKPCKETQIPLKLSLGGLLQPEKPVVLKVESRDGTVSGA

[14] = AUC (0 to t) in Sprague-Dawley rat at 30 mg/kg, po measured after 24 hrs by LC-MS/MS analysis; type: ADME, organism-based; details: in vivo
[15] = Toxicity in female BALB/c nu-nu mouse xenografted with human HCT-116 cells assessed as histopathological changes in heart at 20 mg/kg, po as submicron emulsion administered once daily for 3 weeks by H and E staining based analysis; type: organism-based; details: in vivo, 504 h

GI50 (HCT-116 [1]): 150 nM
Vd [2]: 5.54 L/kg
AUC(0-inf) [3]: 407 ng·h/mL
GI50 (HT-29): 190 nM
half-life [6]: 17.6 min
inhibition at 10 µM (CYP1A2): 12.5%
IC50 (CDK6/cyclin D3): 7940 nM
half-life at 100 µM [11]: 3.9 min
inhibition at 10 µM (CYP3A4): 5.2%
AUC(0-t) at 24 h [14]: 897 ng·h/mL
Compound: CC(C)Oc1cc(F)ccc1-c1ccnc(NC(=O)Nc2cccc(C(=O)N3CCN(C)CC3)c2)c1
Activity (HCT-116 [4]): Active
Activity (HCT-116 [5]): Active
Activity (HCT-116 [7]): Active
Activity (HCT-116 [8]): inactive
Activity [9]: Non-toxic
inhibition (Mus musculus): Active
Activity (HCT-116 [10]): Active
Activity (HCT-116 [12]): Active
Activity [13]: Non-toxic
Activity [15]: Non-toxic
